Results: US20260294949A1, “SUBSTITUTED BICYCLIC HETEROCYCLE COMPOUNDS, COMPOSITIONS, AND USES THEREOF” (Lakewood Amedex, Inc., priority 2023, published 2026)

Tests used:
Format in all cases: cell-based
[1] = test system: Staphylococcus aureus (43330); assay: MIC, broth microdilution (CLSI), Staphylococcus aureus (43330); details: pH 3, 18 to 24 hours
Method: (§1) MIC testing is conducted using the broth (Mueller Hinton Broth) microdilution procedures relevant to each organism group as established by the Clinical and Laboratory Standards Institute (CLSI; 3-7). MIC plates are prepared in accordance with CLSI (3-7). To prepare the test plates, automated liquid handlers are used to conduct serial dilutions and liquid transfers. Automated liquid handlers utilized in this study include the Multidrop 384 (Labsystems, Helsinki, Finland) and the Biomek 2000 (Beckman Coulter, Fullerton CA). The solution is diluted to desired pH using 1 M Citric Acid or 1 M NaOH buffer. A standardized inoculum of each test organism is prepared per CLSI methods (3, 5-7) to equal a 0.5 McFarland standard in the appropriate media followed by an additional 1:20 dilution (1:10 for anaerobes).
(§2) The plates are then inoculated with 10 μL of the diluted 0.5 McFarland suspension using the Biomek 2000 from low to high drug concentration, resulting in a final concentration of approximately 5×10^5 CFU/mL per well. An un-inoculated plate is incubated for the purpose of assessing solubility of the drug in the test media. The plates are stacked 3 to 4 high, covered with a sterile lid on the top plate, and incubated for 18 to 24 hours according to CLSI. The MIC is recorded as the lowest concentration of respective compound that inhibited visible growth of the organism.

[2] = test system: Pseudomonas aeruginosa (27853); assay: MIC, broth microdilution (CLSI), Pseudomonas aeruginosa (27853); details: pH 3, 18 to 24 hours
Method: as §1, §2

Candida albicans (22972) = assay: MIC, broth microdilution (CLSI), Candida albicans (22972); details: pH 3, 18 to 24 hours
Method: as §1, §2

Escherichia coli (25922) = assay: MIC, broth microdilution (CLSI), Escherichia coli (25922); details: pH 3, 18 to 24 hours
Method: as §1, §2

[3] = test system: Pseudomonas aeruginosa (6160); assay: MIC, broth microdilution (CLSI), Pseudomonas aeruginosa (6160); details: pH 4-5, 18 to 24 hours
Method: as §1, §2

[4] = test system: Pseudomonas aeruginosa (0103); assay: MIC, broth microdilution (CLSI), Pseudomonas aeruginosa (0103); details: pH 4-5, 18 to 24 hours
Method: as §1, §2

Escherichia coli (0102) = assay: MIC, broth microdilution (CLSI), Escherichia coli (0102); details: pH 4-5, 18 to 24 hours
Method: as §1, §2

Escherichia coli (6260) = assay: MIC, broth microdilution (CLSI), Escherichia coli (6260); details: pH 4-5, 18 to 24 hours
Method: as §1, §2

[5] = test system: Pseudomonas aeruginosa (6234); assay: MIC, broth microdilution (CLSI), Pseudomonas aeruginosa (6234); details: pH 4-5, 18 to 24 hours
Method: as §1, §2

Escherichia coli (6098) = assay: MIC, broth microdilution (CLSI), Escherichia coli (6098); details: pH 4-5, 18 to 24 hours
Method: as §1, §2

[6] = test system: Pseudomonas aeruginosa (6328); assay: MIC, broth microdilution (CLSI), Pseudomonas aeruginosa (6328); details: pH 4-5, 18 to 24 hours
Method: as §1, §2

Escherichia coli (6259) = assay: MIC, broth microdilution (CLSI), Escherichia coli (6259); details: pH 4-5, 18 to 24 hours
Method: as §1, §2

[7] = test system: Pseudomonas aeruginosa (6326); assay: MIC, broth microdilution (CLSI), Pseudomonas aeruginosa (6326); details: pH 4-5, 18 to 24 hours
Method: as §1, §2

Escherichia coli (6258) = assay: MIC, broth microdilution (CLSI), Escherichia coli (6258); details: pH 4-5, 18 to 24 hours
Method: as §1, §2

SMILES	MIC [1]	MIC [2]	MIC (Candida albicans (22972))	MIC (Escherichia coli (25922))	MIC [3]	MIC [4]	MIC (Escherichia coli (0102))	MIC (Escherichia coli (6260))	MIC [5]	MIC (Escherichia coli (6098))	MIC [6]	MIC (Escherichia coli (6259))	MIC [7]	MIC (Escherichia coli (6258))
CCCCOP(=O)(O)OC[C@H]1O[C@@H](n2cnc3c(N)ncnc32)C[C@@H]1O [LAI-017, ((2R,3S,5R)-5-(6-amino-9H-purin-9-yl)-3-hydroxytetrahydrofuran-2-yl)methyl butyl hydrogen phosphate]	25 mg/mL	5 mg/mL	5 mg/mL	25 mg/mL	–	–	–	–	–	–	–	–	–	–
CCCCOP(=O)(O)OC[C@H]1O[C@@H](n2ncc3c(N)ncnc32)C[C@@H]1O [LAI-018, ((2R, 3S, 5R)-5-(4-amino-1H-pyrazolo [3,4-d]pyrimidine-1-yl)-3-hydroxytetra hydrofuran-2-yl)methyl butyl hydrogen phosphate]	25 mg/mL	25 mg/mL	5 mg/mL	25 mg/mL	–	–	–	–	–	–	–	–	–	–
CCCCOP(=O)(O)OC[C@H]1O[C@@H](n2cnc3cnc(N)nc32)C[C@@H]1O [LAI-020, ((2R,3S,5R)-5-(2-amino-9H-purin-9-yl)-3-hydroxytetrahydrofuran-2-yl)-methyl butyl hydrogen phosphate]	25 mg/mL	5 mg/mL	25 mg/mL	25 mg/mL	–	–	–	–	–	–	–	–	–	–
CCCCOP(=O)(O)OC[C@H]1O[C@@H](n2cnc3c(=O)[nH]c(N)nc32)C[C@@H]1O [R-4, ((2R,3S,5R)-5-(2-amino-1,9-dihydro-6H-purin-6-one-9-yl)-3-hydroxytetrahydrofuran-2-yl)-methyl butyl hydrogen phosphate]	–	–	–	–	50 mg/mL	25 mg/mL	50 mg/mL	100 mg/mL	25 mg/mL	–	–	–	–	–
CCCCOP(=O)(O)OC[C@H]1O[C@@H](n2cnc3c(=O)[nH]c(N)nc32)[C@H](OC)[C@@H]1O [R-8, ((2R,3R,4R,5R)-5-(2-amino-1,9-dihydro-6H-purin-6-one-9-yl)-4-methoxy-3-hydroxytetrahydrofuran-2-yl)-methyl butyl hydrogen phosphate]	–	–	–	–	100 mg/mL	100 mg/mL	100 mg/mL	100 mg/mL	50 mg/mL	100 mg/mL	100 mg/mL	100 mg/mL	100 mg/mL	100 mg/mL
